The numbers were not newly measured in patent publication US9125860B2, “Phosphate free oral care compositions based on magnolia antibacterial agent” (Colgate-Palmolive Company, priority 2010, dated 2015), which cites them from elsewhere.

This series relates to S. mutans, F. nucleatum, V. parvula, A. naslundii, P. gingivitis. Particulars: representative oral bacteria; values not given.

For propylmagnolol, the “bactericidal properties in MIC test, in words” value (“bactericidal properties” for short) is “demonstrated bactericidal properties”.
For the compound `C=CCc1ccc(O)c(-c2ccc(O)c(CC=C)c2)c1` [honokiol], the “bactericidal properties” value is “demonstrated bactericidal properties”.
Regarding `CCCCc1ccc(O)c(-c2cc(CCCC)ccc2O)c1` [butylmagnolol], the “bactericidal properties” value is on record as “demonstrated bactericidal properties”.
For `CCCc1ccc(O)c(-c2ccc(O)c(CCC)c2)c1` [tetrahydrohonokiol], the “bactericidal properties” value is reported as “demonstrated bactericidal properties”.
Turning to `CC(C)c1ccc(O)c(-c2cc(C(C)C)ccc2O)c1` [isopropylmagnolol], the “bactericidal properties” value is “demonstrated bactericidal properties”.
As for isopropylhonokiol, the “bactericidal properties” value is on record as “demonstrated bactericidal properties”.
As for propylhonokiol, the “bactericidal properties” value was “demonstrated bactericidal properties”.
For the compound butylhonokiol, the “bactericidal properties” value is given as “demonstrated bactericidal properties”.
`C=CCc1ccc(O)c(-c2cc(CC=C)ccc2O)c1` [magnolol]: the “bactericidal properties” value is listed as “demonstrated bactericidal properties”.
As to `CCCc1ccc(O)c(-c2cc(CCC)ccc2O)c1` [tetrahydromagnolol], the “bactericidal properties” value is “demonstrated bactericidal properties”.
